Data from patent publication US20180050035A1, “ANTIFUNGAL TREATMENT OF ROSACEA” (Gerbe Labs Inc., priority 2016, published 2018).
Values after ≈ are worked out from the molar mass of the structure shown. Values belong to the compound of their own block, whether it stands above or below them.

Key:
Assay type in all cases: cell-based
[1] = system: Aspergillus fumigatus + Candida albicans co-culture (1:1); assay: Broth microdilution MIC assay against co-culture of fungal spores; details: Table 4, repeated MIC study, agent alone, listed as Itraconazone
Method: Broth Microdilution Minimal Inhibitory Concentration (MIC) assays were performed to obtain the MIC values for Itraconazole and Ketoconazole with an antibiotic (Vancomycin or Tobramycin or Amikacin) against the two fungal strains.
The strains were maintained as a frozen glycerol stocks at −80° C. The fungal strains were prepared by thawing a glycerol stock, streaking and growing onto Sabouraud's Dextrose Agar (SDA) plates, overnight at 35±2° C. in aerobic conditions and used for the assay.
The completely synthetic medium RPMI-1640 (with glutamine, without bicarbonate, and with phenol red as a pH indicator) was buffered with 0.165 mol/L MOPS (3-[N-morpholino] propanesulfonic acid) buffer was used as the growth medium for the fungal strains. Overnight cultures of the fungal strains were grown on Difco™ Sabouraud's Dextrose Agar (SDA) plates at 35° C. To induce conidium and sporangiospore formation, the culture plates were transferred to incubator and grown for 5-7 days 30° C. or until good sporulation was obtained. Approximately, 10 mL of 0.85% saline containing 0.01% of Tween 80 was used to poured on to the agar plate containing conidia or sporangiospores and hyphal fragments. The suspension containing conidia or sporangiospores and hyphal fragments was aspirated and transferred to a sterile tube. This mixture was filtered to separate the spores from the vegetative cells of the fungi. […]

gram negative bacteria = assay: Culture of Patient 7, sensitivity of isolate; details: Patient 7 culture
Source text: (§1) The patient underwent the standard workup for CRS, sleep disorder, and nasal obstruction, plus our diagnostic skin test and sinus CT scan.

Candida albicans = assay: Culture of Patient 7, sensitivity of isolate; details: Patient 7 culture
Source text: as §1

MIC [1]: 1 mg/L (≈ 1.42 µM)
Structure (SMILES): CCC(C)n1ncn(-c2ccc(N3CCN(c4ccc(OCC5COC(Cn6cncn6)(c6ccc(Cl)cc6Cl)O5)cc4)CC3)cc2)c1=O (stereo not drawn) [Itraconazole]

Structure (SMILES): NC[C@H]1O[C@H](O[C@H]2[C@H](O)[C@@H](O[C@H]3O[C@H](CO)[C@@H](O)[C@H](N)[C@H]3O)[C@H](N)C[C@@H]2N)[C@H](N)C[C@@H]1O [tobramycin]
Sensitivity of cultured isolate (gram negative bacteria): sensitive

Structure (SMILES): CC(=O)N1CCN(c2ccc(OCC3COC(Cn4ccnc4)(c4ccc(Cl)cc4Cl)O3)cc2)CC1 (stereo not drawn) [Ketoconazole]
Sensitivity of cultured isolate (Candida albicans): sensitive
